Results taken from publication PMC11249953, “c-KIT inhibitors reduce pathology and improve behavior in the Tg(SwDI) model of Alzheimer’s disease” (Life Science Alliance, 2024).
Values joined by “and” are separate entries in the source; they are usually repeats but may differ in a detail not shown here. Equal values may be shown once.

Experiments:
[1] = tested on: SH-SY5Y neuroblastoma cells transfected with α-synuclein; experiment: In vitro autophagy assay (Abcam kit, flow cytometry); format: cell-based, human; conditions: 10 μM, vs DMSO
Description: To establish that treatment with BK40143 and BK40197 induces autophagy, human SH-SY5Y neuroblastoma cells were transfected with an α-synuclein plasmid before being treated with rapamycin/chloroquine as a positive control, DMSO as a negative control, or an ascending dose ([…]) of either BK40143 or BK40197 for 8 h. Cells were then harvested and treated using the Abcam Autophagy Assay kit, which uses a cationic amphiphilic tracer to stain autophagic vacuoles, before analysis via flow cytometry.
Human SH-SY5Y neuroblastoma cells were grown and cultured in F12 media with 10% fetal bovine serum, 1% L-glutamine, and 1% pen/strep at normal atmospheric conditions (37°C, 21% O2, 5% CO2). Upon reaching 50–70% confluence, cells were transduced with a lentivirus containing an alpha-synuclein plasmid and allowed to grow for 8 h. Cells were then treated with an ascending dose (100 nM–10 μM) of BK40143 or BK40197, or DMSO or rapamycin/chloroquine overnight before being harvested and treated with the Abcam Autophagy Assay kit (cat. #ab139484) according to manufacturer’s protocols. Cells were then resuspended in cell staining buffer before being analyzed on a Becton Dickinson LSRFortessas flow cytometer.

[2] = tested on: phospho-c-KIT; experiment: Western blot for phospho-c-KIT in brain lysates; format: in vivo, mouse; conditions: TgAPP mice; BK40143 5 mg/kg, BK40197 45 mg/kg; vs DMSO
Description: c-KIT is responsible for mast cell development and homeostasis ([Lake et al, 1978]; [Linnekin, 1999]; [Kitamura et al, 2006]). TKs are the central driving force for processes leading to mast cell activation ([Parravicini et al, 2002]; [Gomez et al, 2005]). Multiple receptors are capable of mediating or modifying mast cell activation ([Kraft & Kinet, 2007]; [Kuehn & Gilfillan, 2007]), the major receptor responsible being FcεRI, the high affinity receptor for immunoglobulin E (IgE) ([Rivera & Gilfillan, 2006]). Mast cells are tissue-resident cells of hematopoietic lineage which are derived from CD13^+CD34^+KIT(CD117)^+ bone marrow pluripotent progenitors ([Kirshenbaum et al, 1999]). Although mast cells play an important role in the innate immune system ([Marshall, 2004]; [Galli et al, 2005]), these cells are also responsible for the detrimental exaggerated reactions to antigen ([Galli et al, 2008]) that follow the release of potent inflammatory mediators as a consequence of receptor-mediated mast cell activation ([Metcalfe et al, 1997]). The progression of these cells to fully mature mast cells is dependent on c-KIT activation which occurs because of stem cell factor-induced c-KIT dimerization and auto-phosphorylation ([Kirshenbaum et al, 1999]). […]
Brain hemispheres from treated and untreated animals were lysed in 1x STEN buffer and protein concentrations were measured via BCA assay. […]

[3] = tested on: mice; experiment: Nesting, source data sheets Nesting (mouse line not given); format: in vivo; design: key to Nesting Score AVG (of three observers) / Nesting Score AVG, group mean / Nesting Score / Nesting Score AVG: 0 = nestlet untouched to 5 = near perfect nest; key to Nesting Score (NICK) / Nesting Score (MICHAELINE) / Nesting Score(MAX) / Nesting Score (KORLISS): 0: nestlet untouched; 1: nestlet hardly touched (more than 90% intact); 2: nestlet partially torn (50–90% intact); 3: mostly shredded but no identifiable nest, less than 50% intact but less than 90% in a single quarter of the cage; 4: An identifiable but flat nest, more than 90% torn and material is gathered in a single quarter of the cage; 5: A near perfect nest, more than 90% of the nestlet is torn and the nest is a crater, with walls higher than the mouse body height; conditions: for Nesting Score (MICHAELINE): observer MICHAELINE; for Nesting Score (NICK): observer NICK
Description: Mice were singly housed in standard cages overnight (6 pm–6 am) with a 3-gram cloth nestlet and allowed to freely behave. The next day, nestlets were weighed and photographed, and amount of nestlet shredding was recorded by three observers based on the following scale: 0—nestlet untouched, 1—nestlet hardly touched (more than 90% intact), 2—nestlet partially torn (50–90% intact), 3—mostly shredded but no identifiable nest, less than 50% intact but less than 90% in a single quarter of the cage, 4—An identifiable but flat nest, more than 90% torn and material is gathered in a single quarter of the cage, 5—A near perfect nest, more than 90% of the nestlet is torn and the nest is a crater, with walls higher than the mouse body height.

[4] = 2.5mg/kg, individual mice, listed as 143
[5] = 5.0mg/kg, individual mice, listed as 143

SMILES | labelled cells (autophagic vacuoles), induction of autophagy [1] | phospho-c-KIT levels in brain (Western blot) [2] | Nesting Score ([3]; average score of the raters listed by treatment group, one value per mouse, listed as 197) | Nesting Score AVG ([3]; nesting, average of the raters, one value per mouse, listed as 197) | Nesting Score (KORLISS) ([3]; nesting, rater KORLISS, one value per mouse, listed as 197) | Nesting Score(MAX) ([3]; nesting, rater MAX, one value per mouse, listed as 197) | Weight ([3]; nestlet weight listed by treatment group, one value per mouse, listed as 197, in g (unit assumed)) | Nesting Score AVG, group mean ([3]; 2.5mg/kg) | Nesting Score AVG (of three observers) [3, 4] | Nestlet Weight ([3]; 2.5mg/kg, individual mice, listed as 143, in g (unit assumed)) | Nesting Score(MAX) ([3]; 2.5mg/kg, observer MAX, individual mice, listed as 143) | Nesting Score (MICHAELINE) [3, 4] | Nesting Score (NICK) [3, 4] | Nesting Score AVG, group mean ([3]; 5.0mg/kg) | Nesting Score AVG (of three observers) [3, 5] | Nestlet Weight ([3]; 5.0mg/kg, individual mice, listed as 143, in g (unit assumed)) | Nesting Score(MAX) ([3]; 5.0mg/kg, observer MAX, individual mice, listed as 143) | Nesting Score (MICHAELINE) [3, 5] | Nesting Score (NICK) [3, 5]
Cc1cccc(-c2cc3nccc(N4CCOCC4)c3s2)c1 [BK40197] | significant increases in labelled cells | similar, albeit not statistically significant, trend | 2 and 1 and 0.5 and 0 and 3 | 2 and 1 and 3 and 0.5 and 0 | 2 (nestlet partially torn (50–90% intact)) and 1 (nestlet hardly touched (more than 90% intact)) and 4 and 0 | 2 (nestlet partially torn (50–90% intact)) and 1 (nestlet hardly touched (more than 90% intact)) and 0 | 2.1 and 2.8 and 2.5 and 2.6 and 2.9 and 1.7 |  |  |  |  |  |  |  |  |  |  |  | 
Cc1cccc(-c2cc3nccc(Nc4ccccc4)c3s2)c1 [BK40143] | significant increases in labelled cells | significant decrease in phospho-c-KIT levels |  |  |  |  |  | 0.9048 | 0 and 1.333 and 2.667 and 1 | 2.6 and 2.8 and 2.7 and 0.9 and 2.5 | 0 and 2 (nestlet partially torn (50–90% intact)) and 3 (mostly shredded but no identifiable nest, less than 50% intact but less than 90% in a single quarter of the cage) and 1 (nestlet hardly touched (more than 90% intact)) | 0 and 1 (nestlet hardly touched (more than 90% intact)) and 2 (nestlet partially torn (50–90% intact)) | 0 and 1 (nestlet hardly touched (more than 90% intact)) and 3 (mostly shredded but no identifiable nest, less than 50% intact but less than 90% in a single quarter of the cage) | 1.067 | 1.333 and 0.3333 and 1 and 2 and 0.6667 and 3.667 and 0 | 2.5 and 2.7 and 2.1 and 2.6 and 2.9 and 0 | 2 (nestlet partially torn (50–90% intact)) and 1 (nestlet hardly touched (more than 90% intact)) and 4 and 0 | 1 (nestlet hardly touched (more than 90% intact)) and 0 and 2 (nestlet partially torn (50–90% intact)) and 3 (mostly shredded but no identifiable nest, less than 50% intact but less than 90% in a single quarter of the cage) | 1 (nestlet hardly touched (more than 90% intact)) and 0 and 2 (nestlet partially torn (50–90% intact)) and 4
